Assay results published in patent publication US20060069132A1, “Azolecarboxamide herbicides” (priority 2004, published 2006).

Tests used:
[1] = test system: wheat; assay: Test B postemergence herbicide test; assay type: in vivo, Triticum aestivum; design: key to Wheat plant response rating: 0 = no effect, 100 = complete control; details: postemergence, visual rating, scale 0 (no effect) to 100 (complete control)
Outline: (§1)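 Formulated test chemicals went onto postemergence plants measuring 2 to 18 cm, at one to four leaves. For the paddy assay, species had reached two leaves. Scoring took place 13–15 days later by eye, relative to untreated plants, using 0 for no effect up to 100 for full control.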

[2] = test system: giant foxtail; assay: Test B pre-/postemergence herbicide test; assay type: in vivo, Setaria faberi; details: for Plant response rating, Foxtail, Giant: preemergence; for Foxtail, Giant plant response rating: postemergence, visual rating, scale 0 (no effect) to 100 (complete control)
Outline: (§2)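 Plants compared with untreated controls 13–15 days post-treatment and given a visual 0–100 injury score. Applications: preemergence to seeds; postemergence at 1- to 4-leaf (2–18 cm); paddy species flooded, 2-leaf stage. Vehicle non-phytotoxic, surfactant included.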

[3] = test system: small flower umbrella sedge; assay: Test B flooded paddy test; assay type: in vivo, Cyperus difformis; details: 1000 g ai/ha, visual rating, scale 0 to 100 (0 no effect, 100 complete control), 13 to 15 days
Outline: (§3)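 Visual control ratings, 0–100 versus untreated controls, taken after 13 to 15 days in the greenhouse. Blackgrass received a postemergence spray at the 1- to 4-leaf stage (2–18 cm); ducksalad, umbrella sedge and barnyardgrass were flooded-paddy treated at 2 leaves.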

[4] = test system: pigweed; assay: Test B pre-/postemergence herbicide test; assay type: in vivo, Amaranthus retroflexus; details: for Plant response rating, Pigweed: preemergence; for Pigweed plant response rating: postemergence, visual rating, scale 0 (no effect) to 100 (complete control)
Outline: as §2

[5] = test system: ducksalad; assay: Test B flooded paddy test; assay type: in vivo, Heteranthera limosa; details: 1000 g ai/ha, visual rating, scale 0 to 100 (0 no effect, 100 complete control), 13 to 15 days
Outline: as §3

[6] = test system: barnyardgrass; assay: Test B pre-/postemergence herbicide test; assay type: in vivo, Echinochloa crus-galli; details: for Plant response rating, Barnyardgrass: preemergence; for Barnyardgrass plant response rating: postemergence, visual rating, scale 0 (no effect) to 100 (complete control)
Outline: (§4)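 Response was scored visually 13 to 15 days after treatment against untreated greenhouse controls, 0 meaning no effect and 100 complete control. Formulations (solvent mixture plus surfactant) went onto soil after planting, onto foliage of 1- to 4-leaf plants, and onto 2-leaf plants in a flooded paddy set including rice and barnyardgrass.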

[7] = test system: giant foxtail; assay: Test A pre-/postemergence herbicide test; assay type: in vivo, Setaria faberi
Outline: (§5)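 Plants are held in greenhouse about ten days after treatment, then compared with untreated controls and scored 0 (no effect) to 100 (complete control). Preemergence dosing is a directed soil spray on sown sandy loam; postemergence dosing is spray to runoff at 2–10 cm height.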

[8] = test system: lambsquarters; assay: Test B pre-/postemergence herbicide test; assay type: in vivo, Chenopodium album; details: for Plant response rating, Lambsquarters: preemergence; for Lambsquarters plant response rating: postemergence, visual rating, scale 0 (no effect) to 100 (complete control)
Outline: as §2

[9] = test system: cocklebur; assay: Test B pre-/postemergence herbicide test; assay type: in vivo, Xanthium strumarium; details: for Plant response rating, Cocklebur: preemergence; for Cocklebur plant response rating: postemergence, visual rating, scale 0 (no effect) to 100 (complete control)
Outline: as §4

[10] = test system: rice; assay: Test B flooded paddy test; assay type: in vivo, Oryza sativa; details: 1000 g ai/ha, visual rating, scale 0 to 100 (0 no effect, 100 complete control), 13 to 15 days
Outline: as §1

[11] = test system: barnyardgrass; assay: Test A pre-/postemergence herbicide test; assay type: in vivo, Echinochloa crus-galli
Outline: as §5

[12] = test system: morningglory; assay: Test B pre-/postemergence herbicide test; assay type: in vivo, Ipomoea coccinea; details: for Plant response rating, Morningglory: preemergence; for Morningglory plant response rating: postemergence, visual rating, scale 0 (no effect) to 100 (complete control)
Outline: as §4

[13] = test system: rice; assay: Test B pre-/postemergence herbicide test; assay type: in vivo, Oryza sativa; details: 500 g ai/ha; visual rating 0-100, 0 no effect, 100 complete control; preemergence
Outline: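 Greenhouse pot assay with simultaneous preemergence (treated seed) and postemergence (2–18 cm seedlings) applications of surfactant-containing, non-phytotoxic solvent formulations. Response scored visually 13–15 days later on a 0–100 scale, 100 meaning complete control.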

[14] = test system: large crabgrass; assay: Test A pre-/postemergence herbicide test; assay type: in vivo, Digitaria sanguinalis
Outline: as §5

[15] = test system: velvetleaf; assay: Test A pre-/postemergence herbicide test; assay type: in vivo, Abutilon theophrasti
Outline: as §5

[16] = test system: redroot pigweed; assay: Test A pre-/postemergence herbicide test; assay type: in vivo, Amaranthus retroflexus
Outline: as §5

[17] = test system: velvetleaf; assay: Test B pre-/postemergence herbicide test; assay type: in vivo, Abutilon theophrasti; details: for Plant response rating, Velvetleaf: preemergence; for Velvetleaf plant response rating: postemergence, visual rating, scale 0 (no effect) to 100 (complete control)
Outline: as §2

[18] = test system: barnyardgrass; assay: Test B flooded paddy test; assay type: in vivo, Echinochloa crus-galli; details: 1000 g ai/ha, visual rating, scale 0 to 100 (0 no effect, 100 complete control), 13 to 15 days
Outline: as §3

[19] = test system: corn; assay: Test B pre-/postemergence herbicide test; assay type: in vivo, Zea mays; details: for Plant response rating, Corn: preemergence; for Corn plant response rating: postemergence, visual rating, scale 0 (no effect) to 100 (complete control)
Outline: as §2

[20] = test system: large crabgrass; assay: Test B pre-/postemergence herbicide test; assay type: in vivo, Digitaria sanguinalis; details: for Plant response rating, Crabgrass, Large: preemergence; for Crabgrass, Large plant response rating: postemergence, visual rating, scale 0 (no effect) to 100 (complete control)
Outline: as §2

[21] = test system: morningglory; assay: Test A pre-/postemergence herbicide test; assay type: in vivo, Ipomoea spp.
Outline: as §5

[22] = test system: blackgrass; assay: Test B postemergence herbicide test; assay type: in vivo, Alopecurus myosuroides; details: postemergence, visual rating, scale 0 (no effect) to 100 (complete control)
Outline: as §3

[23] = test system: Surinam grass; assay: Test B pre-/postemergence herbicide test; assay type: in vivo, Urochloa decumbens; details: for Plant response rating, Surinam Grass: preemergence; for Surinam Grass plant response rating: postemergence, visual rating, scale 0 (no effect) to 100 (complete control)
Outline: as §2

[24] = test system: wild oat; assay: Test B postemergence herbicide test; assay type: in vivo, Avena fatua; details: postemergence, visual rating, scale 0 (no effect) to 100 (complete control)
Outline: as §1

[25] = 500 g ai/ha, visual rating 0-100, 0 no effect, 100 complete control
[26] = 125 g ai/ha, 0 to 100 scale, 0 is no effect, 100 is complete control
[27] = Postemergence, 250 g ai/ha, 0 to 100 scale, 0 no effect, 100 complete control
[28] = Postemergence, 1000 g ai/ha, 0 to 100 scale, 0 no effect, 100 complete control
[29] = Preemergence, 1000 g ai/ha, visual rating, 0 to 100 scale (0 no effect, 100 complete control)
[30] = preemergence, 250 g ai/ha, visual injury, 0 to 100 scale (0 no effect, 100 complete control)

## CCn1nc(C(C)(C)C)cc1C(=O)Nc1cccc(S(C)(=O)=O)c1 [Compound 133]
[1]; 125 g ai/ha
  Wheat plant response rating: 0
[1]; 500 g ai/ha
  Wheat plant response rating: 0
[2]; [25]
  Plant response rating, Foxtail, Giant: 40
[2]; 125 g ai/ha
  Foxtail, Giant plant response rating: 0
[2]; 500 g ai/ha
  Foxtail, Giant plant response rating: 20
[2]; [26]
  Plant response rating, Foxtail, Giant: 0
[3]
  Sedge, Umbrella plant response rating: 40
[4]; [25]
  Plant response rating, Pigweed: 100
[4]; 125 g ai/ha
  Pigweed plant response rating: 20
[4]; 500 g ai/ha
  Pigweed plant response rating: 50
[4]; [26]
  Plant response rating, Pigweed: 100
[5]
  Ducksalad plant response rating: 50
[6]; [25]
  Plant response rating, Barnyardgrass: 60
[6]; 125 g ai/ha
  Barnyardgrass plant response rating: 0
[6]; 500 g ai/ha
  Barnyardgrass plant response rating: 40
[6]; [26]
  Plant response rating, Barnyardgrass: 10
[7]; [27]
  Foxtail, Giant plant response rating: 10
[7]; [28]
  Plant response rating, Foxtail, Giant: 20
[7]; [29]
  Foxtail, Giant plant response rating: 30
[7]; [30]
  Foxtail, Giant plant response rating: 0
[8]; [25]
  Plant response rating, Lambsquarters: 100
[8]; 125 g ai/ha
  Lambsquarters plant response rating: 60
[8]; 500 g ai/ha
  Lambsquarters plant response rating: 70
[8]; [26]
  Plant response rating, Lambsquarters: 50
[9]; [25]
  Plant response rating, Cocklebur: 0
[9]; 125 g ai/ha
  Cocklebur plant response rating: 10
[9]; 500 g ai/ha
  Cocklebur plant response rating: 60
[9]; [26]
  Plant response rating, Cocklebur: 0
[10]
  Rice plant response rating: 0
[11]; [27]
  Barnyardgrass plant response rating: 20
[11]; [28]
  Plant response rating, Barnyardgrass: 55
[11]; [29]
  Barnyardgrass plant response rating: 45
[11]; [30]
  Barnyardgrass plant response rating: 0
[12]; [25]
  Plant response rating, Morningglory: 10
[12]; 125 g ai/ha
  Morningglory plant response rating: 10
[12]; 500 g ai/ha
  Morningglory plant response rating: 20
[12]; [26]
  Plant response rating, Morningglory: 10
[13]
  Plant response rating, Rice: 40
[14]; [27]
  Crabgrass, Large plant response rating: 10
[14]; [28]
  Plant response rating, Crabgrass, Large: 20
[14]; [29]
  Crabgrass, Large plant response rating: 80
[14]; [30]
  Crabgrass, Large plant response rating: 25
[15]; [27]
  Velvetleaf plant response rating: 10
[15]; [28]
  Plant response rating, Velvetleaf: 15
[15]; [29]
  Velvetleaf plant response rating: 35
[15]; [30]
  Velvetleaf plant response rating: 5
[16]; [27]
  Pigweed plant response rating: 30
[16]; [28]
  Plant response rating, Pigweed: 75
[16]; [29]
  Pigweed plant response rating: 65
[16]; [30]
  Pigweed plant response rating: 10
[17]; [25]
  Plant response rating, Velvetleaf: 70
[17]; 125 g ai/ha
  Velvetleaf plant response rating: 10
[17]; 500 g ai/ha
  Velvetleaf plant response rating: 50
[17]; [26]
  Plant response rating, Velvetleaf: 20
[18]
  Barnyardgrass plant response rating: 20
[19]; [25]
  Plant response rating, Corn: 0
[19]; 125 g ai/ha
  Corn plant response rating: 10
[19]; 500 g ai/ha
  Corn plant response rating: 20
[19]; [26]
  Plant response rating, Corn: 0
[20]; [25]
  Plant response rating, Crabgrass, Large: 80
[20]; 125 g ai/ha
  Crabgrass, Large plant response rating: 10
[20]; 500 g ai/ha
  Crabgrass, Large plant response rating: 30
[20]; [26]
  Plant response rating, Crabgrass, Large: 20
[21]; [27]
  Morningglory plant response rating: 10
[21]; [28]
  Plant response rating, Morningglory: 20
[21]; [29]
  Morningglory plant response rating: 0
[21]; [30]
  Morningglory plant response rating: 0
[22]; 125 g ai/ha
  Blackgrass plant response rating: 0
[22]; 500 g ai/ha
  Blackgrass plant response rating: 10
[23]; [25]
  Plant response rating, Surinam Grass: 20
[23]; 125 g ai/ha
  Surinam Grass plant response rating: 0
[23]; 500 g ai/ha
  Surinam Grass plant response rating: 50
[23]; [26]
  Plant response rating, Surinam Grass: 0
[24]; 125 g ai/ha
  Oat, Wild plant response rating: 20
[24]; 500 g ai/ha
  Oat, Wild plant response rating: 20
